Reference: PubChem BioAssay AID1918999 (Molecular Pharmacology Branch, DTP, NCI, 2023)

Test system: 556581-035-R-J1-PDC complex spheroid growth
Test: Anticancer human tumor 556581-035-R-J1-PDC patient-derived ovarian carcinoma cell line growth inhibition [AhR]
Details: for IC50: curve of first compound; for viability, T/C: stronger effect = lower value
Text: Multicellular complex tumor spheroid response to aryl hydrocarbon receptor antagonists in combination with a variety of drugs and investigational agents in selected tumor cell lines
The current study was undertaken to assess response to aryl hydrocarbon receptor antagonists in combination with standard-of-care drugs and investigational agents in solid tumor complex spheroid models. Complex spheroids include a stromal component modeled by human endothelial cells (HUVEC) and fibroblasts modeled by human mesenchymal stem cells (MSCs). The concentration ranges selected for each drug and investigational agent were based upon clinically achievable concentrations if the clinical Cmax of the agent was known.
Compounds. The drugs and investigational agents: BAY 2416964 (NSC825713), GNF351 (NSC835774), CH-223191 (NSC835775), CPI-455 (NSC825282), aza-TdCyd (NSC777586), decitabine (NSC127716), belinostat (NSC758774), entinostat (NSC756642), pevonedistat (NSC761192), tazemetostat (NSC777109), talazoparib (NSC765396), olaparib (NSC753686), selinexor (NSC780203), nedisertib (M3814, NSC802822), bortezomib (NSC756655), venetoclax (NSC766270), doxorubicin (NSC123127), elimusertib (BAY189344, NSC800525), ceralasertib (AZD6738, NSC777638), TAK-243 (NSC785004), alisertib (NSC759677), etoposide (NSC141540), topotecan (NSC609699), eribulin (NSC707389), gemcitabine (NSC613327), carboplatin (NSC241240), cisplatin (NSC119875), and SN-38 (NSC673596) were obtained from the National Cancer Institute (NCI) Developmental Therapeutics Program Chemical Repository (32). The FDA-approved anticancer drug set is available from the Developmental Therapeutics Program at https://dtp.cancer.gov/organization/dscb/obtaining/available plates.htm. […] The stock solutions were prepared in dimethyl sulfoxide (DMSO, Sigma-Aldrich, St. Louis, MO, cat. D2650), except for the platinum compounds which were prepared in saline (Quality Biological, Gaithersburg, MD, cat. 114-055-101), at 800-fold the tested concentration and stored at -70 degrees C prior to their use. All drugs and investigational agents were tested over a range starting from a high concentration at or near the clinical Cmax and decreasing in half-log increments. If the clinical Cmax for an agent had not been determined, the highest concentration tested was 10 microM (Table 1).
Cell Culture. All cells were maintained in an incubator at 37 degrees C and 5% CO2 with 95% humidity. The PDC lines were cultured according to standard operating procedures established by the NCI PDMR (https://pdmr.cancer.gov). Briefly, all PDCs were thawed and cultured in Matrigel-coated flasks prepared with a working solution of 1X Ham's F-12 nutrient mix, without supplementation (Invitrogen, Waltham, MA, cat. 11765054), 100 U/mL penicillin-streptomycin (Invitrogen, cat. 15140122), and 2.5% Matrigel (Corning Inc., Corning, NY, cat. 354248) for the first three passages. All PDCs were cultured in complete DMEM/F-12 media containing advanced DMEM/F-12 (Invitrogen, cat. 12634028), 4.9% defined fetal bovine serum, heat inactivated (HyClone Laboratories Inc., Logan, UT, cat. SH30070.03HI), 389 ng/mL hydrocortisone (Sigma-Aldrich, cat. H4001), 9.7 ng/mL human EGF recombinant protein (Invitrogen, cat. PHG0313), 23.4 microg/mL adenine (Sigma-Aldrich, cat. A2786), 97.3 U/mL penicillin-streptomycin (Invitrogen, cat. 15140122), 1.9 mM L-glutamine (Invitrogen, cat. 25030081), and 9.7 microM Y-27632 dihydrochloride (Tocris Bioscience, Bristol, United Kingdom, cat. 1254). The PDCs were cultured in complete DMEM/F12 media without 10 microM Y-27632 dihydrochloride for at least two passages prior to the screen. The established cell lines NCI-H1341 and […] were cultured in DMEM/F-12, HEPES (Invitrogen, cat. 11330032), 5% defined fetal bovine serum (HyClone Laboratories Inc., cat. SH30070.03), ITS premix universal culture supplement [insulin (5 microg/mL), transferrin (5 microg/mL), and selenious acid (5 ng/mL)] […]

[1] = second compound 0.1 µM, first compound 0.0316 µM
[2] = second compound 0.1 µM, first compound 0.1 µM
[3] = second compound 0.316 µM, first compound 0.0316 µM
[4] = second compound 0.316 µM, first compound 0.1 µM
[5] = second compound 1 µM, first compound 0.0316 µM
[6] = second compound 1 µM, first compound 0.1 µM
[7] = second compound 3.16 µM, first compound 0.0316 µM
[8] = second compound 3.16 µM, first compound 0.1 µM
[9] = second compound 10 µM, first compound 0.0316 µM
[10] = second compound 10 µM, first compound 0.1 µM
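For viability, T/C in this document: compound exposure lasted 7 days; 100% = DMSO vehicle control growth.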

## CC[C@@]1(O)C(=O)OCc2c1cc1n(c2=O)Cc2cc3c(CN(C)C)c(O)ccc3nc2-1 + CC(CO)NC(=O)c1cc(-c2ccc(Cl)cc2)nn(-c2cnn(C)c2)c1=O
Second compound 0.1 µM
  IC50: > 0.1 µM
Second compound 0.316 µM
  IC50: > 0.1 µM
Second compound 1 µM
  IC50: > 0.1 µM
Second compound 3.16 µM
  IC50: 0.0878 µM
Second compound 10 µM
  IC50: 0.0846 µM
Second compound 0.1 µM, first compound 0.000316 µM
  viability, T/C: 102%
Second compound 0.1 µM, first compound 0.001 µM
  viability, T/C: 95.5%
Second compound 0.1 µM, first compound 0.00316 µM
  viability, T/C: 90.4%
Second compound 0.1 µM, first compound 0.01 µM
  viability, T/C: 86.8%
[1]
  viability, T/C: 69.7%
[2]
  viability, T/C: 51.7%
Second compound 0.316 µM, first compound 0.000316 µM
  viability, T/C: 97.2%
Second compound 0.316 µM, first compound 0.001 µM
  viability, T/C: 98%
Second compound 0.316 µM, first compound 0.00316 µM
  viability, T/C: 92.9%
Second compound 0.316 µM, first compound 0.01 µM
  viability, T/C: 80.6%
[3]
  viability, T/C: 69.5%
[4]
  viability, T/C: 58.6%
Second compound 1 µM, first compound 0.000316 µM
  viability, T/C: 101%
Second compound 1 µM, first compound 0.001 µM
  viability, T/C: 110%
Second compound 1 µM, first compound 0.00316 µM
  viability, T/C: 93.6%
Second compound 1 µM, first compound 0.01 µM
  viability, T/C: 80.8%
[5]
  viability, T/C: 75%
[6]
  viability, T/C: 57.3%
Second compound 3.16 µM, first compound 0.000316 µM
  viability, T/C: 90.5%
Second compound 3.16 µM, first compound 0.001 µM
  viability, T/C: 97%
Second compound 3.16 µM, first compound 0.00316 µM
  viability, T/C: 91.4%
Second compound 3.16 µM, first compound 0.01 µM
  viability, T/C: 78.2%
[7]
  viability, T/C: 65.9%
[8]
  viability, T/C: 47.8%
Second compound 10 µM, first compound 0.000316 µM
  viability, T/C: 100%
Second compound 10 µM, first compound 0.001 µM
  viability, T/C: 101%
Second compound 10 µM, first compound 0.00316 µM
  viability, T/C: 94.7%
Second compound 10 µM, first compound 0.01 µM
  viability, T/C: 93.2%
[9]
  viability, T/C: 70.5%
[10]
  viability, T/C: 46.5%

## CCc1c2c(nc3ccc(O)cc13)-c1cc3c(c(=O)n1C2)COC(=O)[C@]3(O)CC + CC(CO)NC(=O)c1cc(-c2ccc(Cl)cc2)nn(-c2cnn(C)c2)c1=O
Second compound 0.1 µM
  IC50: 0.0117 µM
Second compound 0.316 µM
  IC50: 0.0164 µM
Second compound 1 µM
  IC50: 0.0157 µM
Second compound 3.16 µM
  IC50: 0.0115 µM
Second compound 10 µM
  IC50: 0.0121 µM
Second compound 0.1 µM, first compound 0.000949 µM
  viability, T/C: 77.2%
Second compound 0.1 µM, first compound 0.003 µM
  viability, T/C: 73.5%
Second compound 0.1 µM, first compound 0.00949 µM
  viability, T/C: 49.5%
Second compound 0.1 µM, first compound 0.03 µM
  viability, T/C: 36.7%
Second compound 0.1 µM, first compound 0.0949 µM
  viability, T/C: 19.2%
Second compound 0.1 µM, first compound 0.3 µM
  viability, T/C: 11.6%
Second compound 0.316 µM, first compound 0.000949 µM
  viability, T/C: 81.5%
Second compound 0.316 µM, first compound 0.003 µM
  viability, T/C: 79.6%
Second compound 0.316 µM, first compound 0.00949 µM
  viability, T/C: 60.7%
Second compound 0.316 µM, first compound 0.03 µM
  viability, T/C: 36.9%
Second compound 0.316 µM, first compound 0.0949 µM
  viability, T/C: 20.6%
Second compound 0.316 µM, first compound 0.3 µM
  viability, T/C: 12.1%
Second compound 1 µM, first compound 0.000949 µM
  viability, T/C: 77.3%
Second compound 1 µM, first compound 0.003 µM
  viability, T/C: 74.2%
Second compound 1 µM, first compound 0.00949 µM
  viability, T/C: 59.5%
Second compound 1 µM, first compound 0.03 µM
  viability, T/C: 36.8%
Second compound 1 µM, first compound 0.0949 µM
  viability, T/C: 21.4%
Second compound 1 µM, first compound 0.3 µM
  viability, T/C: 11.3%
Second compound 3.16 µM, first compound 0.000949 µM
  viability, T/C: 73.6%
Second compound 3.16 µM, first compound 0.003 µM
  viability, T/C: 67%
Second compound 3.16 µM, first compound 0.00949 µM
  viability, T/C: 52.6%
Second compound 3.16 µM, first compound 0.03 µM
  viability, T/C: 34.9%
Second compound 3.16 µM, first compound 0.0949 µM
  viability, T/C: 18%
Second compound 3.16 µM, first compound 0.3 µM
  viability, T/C: 9.46%
Second compound 10 µM, first compound 0.000949 µM
  viability, T/C: 80.2%
Second compound 10 µM, first compound 0.003 µM
  viability, T/C: 69.9%
Second compound 10 µM, first compound 0.00949 µM
  viability, T/C: 56.9%
Second compound 10 µM, first compound 0.03 µM
  viability, T/C: 30%
Second compound 10 µM, first compound 0.0949 µM
  viability, T/C: 18%
Second compound 10 µM, first compound 0.3 µM
  viability, T/C: 8.73%

## Nc1ccn(C2OC(CO)C(O)C2(F)F)c(=O)n1 (stereo not given) + CC(CO)NC(=O)c1cc(-c2ccc(Cl)cc2)nn(-c2cnn(C)c2)c1=O
Second compound 0.1 µM
  IC50: < 0.0316 µM
Second compound 0.316 µM
  IC50: < 0.0316 µM
Second compound 1 µM
  IC50: < 0.0316 µM
Second compound 3.16 µM
  IC50: < 0.0316 µM
Second compound 10 µM
  IC50: < 0.0316 µM
[1]
  viability, T/C: 37%
[2]
  viability, T/C: 40.3%
Second compound 0.1 µM, first compound 0.316 µM
  viability, T/C: 35.8%
Second compound 0.1 µM, first compound 1 µM
  viability, T/C: 35.8%
Second compound 0.1 µM, first compound 3.16 µM
  viability, T/C: 37.5%
Second compound 0.1 µM, first compound 10 µM
  viability, T/C: 31.4%
[3]
  viability, T/C: 36.6%
[4]
  viability, T/C: 35.2%
Second compound 0.316 µM, first compound 0.316 µM
  viability, T/C: 39.2%
Second compound 0.316 µM, first compound 1 µM
  viability, T/C: 41.1%
Second compound 0.316 µM, first compound 3.16 µM
  viability, T/C: 32%
Second compound 0.316 µM, first compound 10 µM
  viability, T/C: 29.3%
[5]
  viability, T/C: 35%
[6]
  viability, T/C: 36.5%
Second compound 1 µM, first compound 0.316 µM
  viability, T/C: 36.5%
Second compound 1 µM, first compound 1 µM
  viability, T/C: 38.5%
Second compound 1 µM, first compound 3.16 µM
  viability, T/C: 36.2%
Second compound 1 µM, first compound 10 µM
  viability, T/C: 36.6%
[7]
  viability, T/C: 32.8%
[8]
  viability, T/C: 37.3%
Second compound 3.16 µM, first compound 0.316 µM
  viability, T/C: 36.2%
Second compound 3.16 µM, first compound 1 µM
  viability, T/C: 38.3%
Second compound 3.16 µM, first compound 3.16 µM
  viability, T/C: 35.5%
Second compound 3.16 µM, first compound 10 µM
  viability, T/C: 34.3%
[9]
  viability, T/C: 37.4%
[10]
  viability, T/C: 34.4%
Second compound 10 µM, first compound 0.316 µM
  viability, T/C: 42.5%
Second compound 10 µM, first compound 1 µM
  viability, T/C: 40.6%
Second compound 10 µM, first compound 3.16 µM
  viability, T/C: 39.6%
Second compound 10 µM, first compound 10 µM
  viability, T/C: 36%
